The record followed here is US20120231482A1, “METHOD, KIT OR DIAGNOSTIC FOR THE DETECTION OF REAGENTS WHICH INDUCE ALTERED CONTRACTILITY” (THE JOHNS HOPKINS UNIVERSITY, priority 2009, published 2012).

One assay has as its system skeletal muscle. Put plainly: Steady-state force-[Ca2+]i relations of skeletal muscle. The class given is cell-based, rat. From the text:
FIG. 6. MLC1 Cys81 necessary for increase in Fmax induced by treatment with HNO donors. (a) Sequence alignment comparing isoforms of rat cardiac (SEQ ID NO:16) and skeletal MLC1 (SEQ ID NO:17) in the region surrounding cardiac Cys81. (b) Steady-state force-[Ca^2+]i relations in control (o) versus NCA-treated (•) from cardiac or skeletal trabeculae indicating loss of increase in maximum force with loss of Cys81 in skeletal isoform with NCA (n=5, each group). (c) 2D Gel shift assay (non-reduced, NR and reduced, DTT) using 10 μg of skeletal or cardiac myofibrils indicating loss of higher molecular weight forms of MLC1 in skeletal HNO treated preparations while maintaining higher molecular weight form of TM (n=3).
To determine if MLC1 Cys81 is involved in the increased maximum force production, the effect of HNO donors was investigated in skeletal muscle preparations. Skeletal muscle isoforms of myofilament proteins contain all of the potential target Cys except for MLC1, which lacks the candidate site Cys81 providing a natural mutant sequence (FIG. 6A). […] The same insensitivity of Fmax to AS was also observed in skinned skeletal muscles (data not shown).

In assay [1] the target is T1, myosin heavy chain and light chain 1 (Rattus norvegicus, UniProt P02563+P16409).
T1 construct: 1 μg of rat cardiac myofibrils treated with HNO donors or control compounds; tissue Pel Freez Biologicals; host or cells: myofibrils from frozen rat ventricles
In words: Gel shift assay, reducing/non-reducing western blot of cardiac myofibrils. The class given is biochemical. The following applies: non-reducing; lost with 5 mM DTT. The procedure:
FIG. 4. Validation and characterizations of HNO modifications. 1 μg of rat cardiac myofibrils treated with HNO donors or control compounds were separated under reducing or nonreducing conditions and western blots probed for candidate proteins tropomyosin, actin, myosin heavy chain, myosin light chain 1 (n=4). […] Silver stained gel analysis indicated a protein band with […] gel mobility that was lost with DTT.
Gel shift assay. 10 μg of rat myofibrils/treatment were diluted to 0.5 μg/μl in HEN including 0.1% (w/v) SDS and exposed to a treatment for 20 min at 37° C. Samples were diluted to 0.1 ug/ul in 1×LSD sample buffer, treated with 0, 5 or 100 mM DTT and separated by SDS PAGE. Proteins were silver stained or transferred to nitrocellulose and immunoblotted with primary antibodies for tropomyosin sarcomeric (CH1, Sigma-Aldrich Co., St. Louis, Mo., USA), actin (AC-40, Sigma-Aldrich Co., St. Louis, Mo., USA), myosin light chain 1 (MLM527, Abcam, Cambridge, Mass., USA) or myosin heavy chain (3-48, Abcam, Cambridge, Mass., USA). For some silver stained gel bands of interest in-gel digestion was done following the protocol outlined in Shevchenko et al.. Gel slices of interest were excised from the gels cut into 1 mm^3 pieces. Silver stained gel pieces were destained in 1:1(v/v) 30 mM Potassium ferricyanide and 100 mM Sodium thiosulfate and wash three times with ddH2O. […]
(Mobility shift assays separate free from complexed probe on a gel.)

T1 sequence (P02563 whole entry): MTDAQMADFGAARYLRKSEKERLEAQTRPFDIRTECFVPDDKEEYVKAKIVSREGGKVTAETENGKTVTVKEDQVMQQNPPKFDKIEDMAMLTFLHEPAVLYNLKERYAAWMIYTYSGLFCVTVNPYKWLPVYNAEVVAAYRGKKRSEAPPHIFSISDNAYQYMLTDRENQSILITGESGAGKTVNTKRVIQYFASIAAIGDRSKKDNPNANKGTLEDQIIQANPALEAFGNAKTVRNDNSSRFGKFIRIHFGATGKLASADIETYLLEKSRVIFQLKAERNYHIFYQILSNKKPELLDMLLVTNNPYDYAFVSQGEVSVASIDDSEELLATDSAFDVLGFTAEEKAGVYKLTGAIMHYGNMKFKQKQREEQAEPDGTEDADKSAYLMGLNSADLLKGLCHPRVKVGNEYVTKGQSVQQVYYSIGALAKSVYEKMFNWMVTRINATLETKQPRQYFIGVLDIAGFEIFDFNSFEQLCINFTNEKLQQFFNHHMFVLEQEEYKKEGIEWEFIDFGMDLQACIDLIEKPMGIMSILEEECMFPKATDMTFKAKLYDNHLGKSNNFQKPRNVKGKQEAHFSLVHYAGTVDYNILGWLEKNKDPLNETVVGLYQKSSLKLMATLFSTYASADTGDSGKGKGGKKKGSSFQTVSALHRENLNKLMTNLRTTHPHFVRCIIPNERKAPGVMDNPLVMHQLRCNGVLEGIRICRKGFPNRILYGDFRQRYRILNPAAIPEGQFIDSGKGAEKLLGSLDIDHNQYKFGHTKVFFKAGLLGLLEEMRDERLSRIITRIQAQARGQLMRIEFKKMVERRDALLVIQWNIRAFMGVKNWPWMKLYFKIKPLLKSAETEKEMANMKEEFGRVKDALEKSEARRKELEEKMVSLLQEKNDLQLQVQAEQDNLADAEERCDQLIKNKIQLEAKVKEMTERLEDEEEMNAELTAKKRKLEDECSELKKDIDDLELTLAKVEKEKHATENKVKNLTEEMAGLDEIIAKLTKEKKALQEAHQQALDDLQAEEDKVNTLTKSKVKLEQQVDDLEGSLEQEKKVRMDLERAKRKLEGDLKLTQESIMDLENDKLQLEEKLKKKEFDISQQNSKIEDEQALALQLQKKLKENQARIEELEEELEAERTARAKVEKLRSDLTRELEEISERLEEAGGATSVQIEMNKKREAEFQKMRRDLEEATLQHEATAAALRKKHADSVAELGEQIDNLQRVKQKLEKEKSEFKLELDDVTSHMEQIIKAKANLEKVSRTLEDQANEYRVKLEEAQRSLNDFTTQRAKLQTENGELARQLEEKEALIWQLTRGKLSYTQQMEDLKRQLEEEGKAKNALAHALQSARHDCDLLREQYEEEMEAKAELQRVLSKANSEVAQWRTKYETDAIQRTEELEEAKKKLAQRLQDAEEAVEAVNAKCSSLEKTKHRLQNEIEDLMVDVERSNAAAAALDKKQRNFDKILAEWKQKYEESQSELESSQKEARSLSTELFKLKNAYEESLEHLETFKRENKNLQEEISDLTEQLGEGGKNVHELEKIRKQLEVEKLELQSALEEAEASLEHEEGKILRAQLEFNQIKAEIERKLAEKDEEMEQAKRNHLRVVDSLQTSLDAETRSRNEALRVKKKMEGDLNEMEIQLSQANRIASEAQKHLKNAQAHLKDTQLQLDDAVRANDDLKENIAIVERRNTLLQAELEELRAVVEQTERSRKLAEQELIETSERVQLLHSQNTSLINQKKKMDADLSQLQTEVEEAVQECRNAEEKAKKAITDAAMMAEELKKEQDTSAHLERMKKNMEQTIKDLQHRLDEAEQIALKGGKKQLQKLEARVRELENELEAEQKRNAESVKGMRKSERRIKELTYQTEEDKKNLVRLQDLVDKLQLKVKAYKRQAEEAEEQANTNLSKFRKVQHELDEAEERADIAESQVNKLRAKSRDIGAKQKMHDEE
T1 sequence (P16409 2-200 limits assumed): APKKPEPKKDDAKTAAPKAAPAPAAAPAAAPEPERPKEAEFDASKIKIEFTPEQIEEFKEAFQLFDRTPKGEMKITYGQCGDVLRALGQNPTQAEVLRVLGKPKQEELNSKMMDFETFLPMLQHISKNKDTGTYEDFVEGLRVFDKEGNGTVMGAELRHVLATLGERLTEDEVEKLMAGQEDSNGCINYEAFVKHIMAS
T1 sequence (P08733 2-166 partner limits assumed): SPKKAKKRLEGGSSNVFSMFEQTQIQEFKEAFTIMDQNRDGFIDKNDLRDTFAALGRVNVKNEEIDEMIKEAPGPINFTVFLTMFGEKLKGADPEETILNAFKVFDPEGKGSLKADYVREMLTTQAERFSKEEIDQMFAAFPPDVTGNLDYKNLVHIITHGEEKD

Consider `[Na+].[Na+].[O-][N+]([O-])=NO` [AS, Angeli's Salt], for which the Fmax entry in the assay on skeletal muscle (skinned skeletal muscles, AS, data not shown) was “insensitivity”. For the same compound, the MLC1 homodimer population in assay [1] was approximately 50 kDa.
Consider `CC(=O)OC1(N=O)CCCCC1` [NCA, 1-nitrosocyclohexylacetate], for which, in the assay on skeletal muscle (skeletal muscle, NCA 25 μmol/L), the Ca50 amounted to 0.8 ± 0.1 µM, the Fmax came out at 33±3.8 mN/mm^2 and the Hill is reported as 4.36±0.81. Also, the MLC1 homodimer population in assay [1] is listed as approximately 50 kDa.
